# From patent US5939403A, “Keratan sulfate oligosaccharide fraction and pharmaceutical containing the same” (Seikagaku Corporation, priority 1994, dated 1999)
# Assays:
# [1] = test system: papain-induced arthritis; experiment: Papain-induced unilateral arthritis model, intramuscular administration (volume of synovial fluid); format: in vivo, Japanese white rabbits (female); conditions: 0.5 mg/kg intramuscular, unilateral model; 10 rabbits per group
# Experimental: The anti-inflammatory effect of the keratan sulfate oligosaccharide with rabbits of the papain-induced arthritis model was examined using the volume of synovial fluid as an indication.
# Seven days after the injection, the blood was drawn from the auricular artery, and plasma containing heparin was separated. After drawing the blood, the rabbits were anatomized and the both knee joint were separated. The articular cavity was washed with 2 ml of saline three times to recover the synovial fluid. The calcium concentrations in the plasma and the recovered synovial fluid were determined, and the volume of synovial fluid was calculated from the following formula.
# Volume of Synovial Fluid (ul/articulation)=Amount of Calcium in Recovered
# Synovial Fluid (μg/articulation)/Concentration of Calcium in Plasma
# Into the articular cavity of left joint of Japanese white rabbits (female) of 3 kg weight, 150 μl of the saline solution of papain (1%) was injected, and the right joint was not treated to prepare the unilateral arthritis model. One day after injecting papain, 150 μl of the PBS solution of the purified keratan sulfate tetrasaccharide (I) (2%, 1%, and 0.5% solution; 1.0 mg/kg, 0.5 mg/kg, and 0.25 mg/kg, respectively) which was prepared in Example 1 was injected into the hip muscle of the left side (hereinafter referred to as "the keratan sulfate tetrasaccharide (I) administered group"). As the control, 150 μl of PBS was injected to the arthritis model instead of the PBS solution of the keratan sulfate tetrasaccharide (I) and hereinafter these rabbits are referred to as "the control group". And the normal rabbits not subjected to the papain injection (hereinafter referred to as "the normal group") were also examined in the same manner hereinafter. Seven days after the injection, the volume of synovial fluid was calculated in the same manner as in (1-1).
# The examination was performed in the same manner as in (1-3) except for using 150 μl of the PBS solution of the purified keratan sulfate tetrasaccharide (I), the keratan sulfate pentasaccharide (II), and the keratan sulfate disaccharide (III) (1% solution; 0.5 mg/kg) which were prepared in Example 1. In the figure, *, **, and *** represent that they have the significant difference with p<0.05, p<0.01, and p<0.001, respectively. And in each group, 10 rabbits were used for the examination.
# [2] = test system: allergic conjunctivitis; experiment: TDI-induced allergic conjunctivitis model, eye dropping; format: in vivo, female Hartley guinea pigs; conditions: 6.0 mg/ml eye drop, comparison of oligosaccharides
# Experimental: A variety of the keratan sulfate oligosaccharide was dropped in the eyes of the guinea pigs subjected to the induction of allergic conjunctivitis to examine the effect thereof.
# Toluene diisocyanate (hereinafter referred to as TDI) was diluted with ethyl acetate to a concentration of 10%. To the bilateral vestibule of noses of 10 female Hartley guinea pigs of from about 900 to 1,000 g weight, the 10% TDI (10 μl/animal) obtained above was applied once a day for five days to prepare the TDI sensitization models. The PBS solution of the purified keratan sulfate tetrasaccharide (I) ([…]) which was prepared in Example 1 was dropped in the left eyes of the TDI sensitization models, while PBS was dropped in the right eyes as the control. The dose of dropping was one drop (48+4.6 μl (S.D.)) each from the eye dropper. After 10 minutes, 6.5 μl of 10% TDI was dropped to the both eyes to induce conjunctivitis. After five minutes standing, furthermore, the PBS solution of the keratan sulfate tetrasaccharide (I) ([…]) was dropped in the left eyes, and PBS was dropped in the right eyes. After 15 minutes, observation of the both eyes were carried out. The degree of conjunctivitis was evaluated regarding three items of hyperemia, edema and lacrimation into four grades such as point 0, +1, +2 and +3. In the figure, * represents that it has the significant difference with p<0.05 (wherein "p" means a level of significance by the .chi.^2 test).
# The PBS solution of the purified keratan sulfate disaccharide (III), the keratan sulfate tetrasaccharide (I), and the keratan sulfate pentasaccharide (II) (6.0 mg/ml, respectively)which were prepared in Example 1 described above as the test substances were dropped, respectively, in the left eyes of the TDI sensitization models of 10 animals a group each which were prepared in the same manner as in (1) described above, and PBS was dropped in the right eyes as the control. The degree of conjunctivitis was evaluated in the same manner as in (1) described above. In the figure, * represents that it has the significant difference with p<0.05 (wherein "p" means a level of significance by the .chi.^2 test).
# The PBS solution containing the purified keratan sulfate tetrasaccharide (I) which was prepared in Example 1 described above, at varieties of concentrations (6 mg/ml, 3 mg/ml, 1.5 mg/ml or 0.75 mg/ml) as the test substance, were dropped, respectively, in the left eyes of the TDI sensitization models of 10 animals a group each which were prepared in the same manner as in (1) described above, and PBS was dropped in the right eyes as the control. The degree of conjunctivitis was evaluated in the same manner as in (1) described above. In the figure, * represents that it has the significant differnce with p<0.05 (wherein "p" means a level of significance by the .chi.^2 test).
# [3] = test system: neutrophile of guinea pig; experiment: Inhibition of active oxygen (O2^-) generation in FMLP-stimulated neutrophile; format: cell-based, female Hartley guinea pigs
# Experimental: To female Hartley guinea pigs of five weeks old (purchased from Japan SLC), 20 ml of the 0.2% aqueous solution of glycogen (Type II; Oyster; Sigma) dissolved in saline which was previously sterilized with autoclave, was intraperitoneally administered. The guinea pigs were sacrificed by bleeding 16 hours after the administration, and 20 ml of the saline containing heparin at a concentration of 10 U/ml was intraperitoneally injected to recover the peritoneal exudate. Hereinafter all the operations were carried out under ice-water cooling condition except for incubation. The recovered exudate was centrifuged at 1,000 rpm for 10 minutes, the precipitate obtained was hemolyzed with purified water for 30 seconds, and returned into isotonicity with the Hanks' solution at double the concentration (not containing phenol red; Nissui Seiyaku), and further it was centrifuged at 1,000 rpm for 10 minutes. The precipitate obtained was suspended in the Hanks' solution and centrifuged and the operations were repeated once more to give the neutrophile.
# The collected neutrophile of the guinea pigs was suspended in the Hanks' solution, the number of leukocyte in the suspension was determined by a cytometer (System K-2000; Toa Iyo Denshi Co.), and the suspension diluted with the Hanks' solution to 2×10^6 cells/ml was used in the determination as the cell suspension. After mixing 1 ml of the cell suspension and 10 μl of the purified keratan sulfate oligosaccharide (keratan sulfate tetrasaccharide (I), the keratan sulfate pentasaccharide (II), or the keratan sulfate disaccharide (III)) prepared in Example 1 described above, and the mixture was preincubated at 37° C. for an hour. […]
# The supernatant obtained by the centrifugation was separated and the absorbance thereof was determined at 550 nm to estimate the quantity of reducing cytochrome c per 2×10^6 cells after the 10 minutes incubation. The quantity of reducing cytochrome c increases with the generation of active oxygen (O2^-). […]
substance,measurement,setting,value
NeuAc~Galβ1-4GlcNAc(6S)β1-3Gal(6S)β1-4GlcNAc(6S) [keratan sulfate pentasaccharide (II)],"quantity of synovial fluid (FIG. 5, result in words)",[1],significantly less than that in the control group
same,"degree of conjunctivitis: hyperemia, edema and lacrimation (FIG. 12)",[2],tended to show inhibition in all the items
same,inhibitory function for generation of active oxygen (O2^-) (FIG. 10),[3],slightly observed
